Values quoted from earlier work, collected in US20140296155A1, “ANTI-STRETCH MARK SKIN CREAM AND METHOD FOR MAKING AND USING THEREOF” (priority 2011, published 2014).

Tested on: Type 1 and Type 3 collagen

O=C1O[C@H]([C@@H](O)CO)C(O)=C1O [Vitamin C, Ascorbic Acid]
collagen formation over control levels: 3-4 fold
